Three molecules from patent US20030162814A1, “N-substituted 1-amino-1,1-dialkylcarboxylic acid derivatives” (priority 2000, published 2003) can be followed below.

By melting point is commonly meant the temperature of the solid-liquid transition. For the molecule `CC(C)(Nc1cccc(C(=N)N)c1)C(=O)Nc1ccc(-c2ccccc2S(N)(=O)=O)cc1.O=C(O)C(F)(F)F`, the melting point was 197 °C. `CC(=O)O.CC(C)(C)NS(=O)(=O)c1ccccc1-c1ccc(NC(=O)C(C)(C)Nc2cccc(C(=N)N)c2)cc1` had a melting point of 153 °C.

Molecule `CC(C)(C)NS(=O)(=O)c1ccccc1-c1ccc(NC(=O)C(C)(C)Nc2cccc(C#N)c2)cc1` [CB, N-(2′-tert-butylsulfamoyl-biphenyl-4-yl)-2-(3-cyanophenylamino)-2-methylpropionamide] yielded a melting point of 190 to 193 °C.
